Key:
Assay type in all cases: cell-based
[1] = target: T1, EGFR wildtype, endogenous (A549) (Homo sapiens, UniProt P00533); assay: pEGFR Y1068 ELISA assay, A549 cells; details: inhibition of phosphorylation of EGFR at Tyr1068; A549 NSCLC cells; 2 hr compound incubation, then stimulated 10 min with EGF (40 ng/mL)
T1 construct: A549 (EGFR wildtype, endogenous); host or cells: A549 (stimulated with EGF)

[2] = target: T2, EGFR L858R+T790M, endogenous (NCI-H1975) (Homo sapiens, UniProt P00533, L858R/T790M); assay: pEGFR Y1068 ELISA assay, NCI-H1975 cells; details: inhibition of phosphorylation of EGFR at Tyr1068; NCI-H1975 NSCLC cells; 2 hr compound incubation
T2 construct: NCI-H1975 (EGFR L858R+T790M, endogenous); host or cells: NCI-H1975
Experimental: Phosphorylation of EGFR at Y1068 was measured by PathScan® Phospho-EGF Receptor (Try1068) Sandwich ELISA kit (#7240, Cell Signaling Technology®, Danvers, Mass.). The PathScan® Phospho-EGF Receptor (Tyr1068) Sandwich ELISA Kit is a solid phase sandwich enzyme-linked immunosorbent assay (ELISA) that detects endogenous levels of phospho-EGF Receptor (Tyr1068) protein. […] All cells were cultured according to ATCC recommendations. A549, NCI-H1975, PC9, and NCI-H3255 cells were grown in RPMI media (Invitrogen, Carlsbad, Calif.) supplemented with 10% FBS (Sigma, St Louis, Mo.), and with 1% Penn/Strep (Invitrogen). PC9-DRH cells were grown in RPMI with 10% FBS and 1 μM dacomitinib.
Cells were plated at 40,000/well in complete culture media (50 μL/well) on the bottom of clear tissue culture treated microtiter plates (#3595, Corning Inc, Corning, N.Y.) and allowed to adhere overnight at 37° C., 5% CO2. The following day, compound dilution plates were prepared in 96 well clear V-bottom 0.5 mL polypropylene block plates (#3956, Corning, Inc). Each compound was prepared as a DMSO stock solution (10 mM). Compounds were tested in duplicate on each plate, with an 11-point serial dilution curve (1:3 dilution). Compound treatment (50 μL) was added from the compound dilution plate to the cell plate. […] Plates were then incubated for 2 hr at 37° C., 5% CO2. For A549 (EGFR wildtype) assay, cells were plated in full-serum (10%) media for 24 hr prior to compound treatment; cells were treated in full serum media as described and then stimulated for 10 min with EGF (40 ng/mL/starvation media, Invitrogen). Immediately prior to the end of the incubation, ice-cold lysis buffer was prepared (1× Cell Lysis Buffer (#9803, Cell Signaling Technology), 1 mM sodium orthovanadate (Na3VO4, #96508, Sigma), 1 mM phenylmethanesulfonyl fluoride (PMSF, 52332, CalBiochem/EMD Chemicals), complete Mini EDTA-free Protease Inhibitor Cocktail Tablet (1 tablet/10 mL, #11836170001, Roche, Indianapolis, Ind.), and PhosSTOP Phosphatase Inhibitor Cocktail Tablet (1 tablet/10 mL, #04906837001, Roche) in pure water. At the end of 2 hr, media was flicked off and cells were washed once with ice-cold 1 mM Na3VO4 in PBS (100 μL/well, Invitrogen). The wash was then flicked off and ice-cold lysis buffer was added to the cells (50 μL/well). The plate was shaken for 20-30 min at 4° C. to completely lyse the cells. Sample diluent (50 μL/well) was added to the ELISA plate, and the lysate (50 μL) was diluted into the sample diluent in each well of the ELISA plate. Plates were sealed and incubated overnight at 4° C. with shaking. The next day, wells were washed four times with 1× Wash Buffer; plates were taped on lint-free paper after the final wash prior to adding Add Detection Antibody (green, 100 μL/well) to each well and incubating for 1 hr at 37° C. After incubation, wells were washed as described. HRP-Linked secondary antibody (red, 100 μL/well) was added to each well and incubated for 30 min at 37° C. After incubation, the wells were washed as described. TMB Substrate (100 μL/well) was added to each well and the plate incubated for 10 min at 37° C. or 30 min at rt maximum. Stop Solution (100 μL/well) was added to each well at the end of the incubation and plates were shaken gently for a few seconds. Absorbance was read at 450 nm within 30 min after addition of Stop Solution on a PerkinElmer EnVision Excite Multilabel Reader Method for Absorbance or on a Molecular Devices SpectraMax^384 Reader for absorbance. Data were analyzed using a four-parameter fit in Microsoft Excel.

EGFR del/T790M (PC9-DRH) = target: T3, EGFR del/T790M (PC9-DRH) (Homo sapiens, UniProt P00533, DEL746-750/T790M); assay: pEGFR Y1068 ELISA assay, PC9-DRH cells; details: inhibition of phosphorylation of EGFR at Tyr1068; PC9-DRH cells (dacomitinib resistant); 2 hr compound incubation
T3 construct: detects endogenous levels of phospho-EGF Receptor (Tyr1068) protein; endogenous in cells; host or cells: PC9-DRH (dacomitinib-resistant derivative of PC9, generated in house)
T3 sequence (P00533 with tags, fused parts or gaps DEL746-750/T790M): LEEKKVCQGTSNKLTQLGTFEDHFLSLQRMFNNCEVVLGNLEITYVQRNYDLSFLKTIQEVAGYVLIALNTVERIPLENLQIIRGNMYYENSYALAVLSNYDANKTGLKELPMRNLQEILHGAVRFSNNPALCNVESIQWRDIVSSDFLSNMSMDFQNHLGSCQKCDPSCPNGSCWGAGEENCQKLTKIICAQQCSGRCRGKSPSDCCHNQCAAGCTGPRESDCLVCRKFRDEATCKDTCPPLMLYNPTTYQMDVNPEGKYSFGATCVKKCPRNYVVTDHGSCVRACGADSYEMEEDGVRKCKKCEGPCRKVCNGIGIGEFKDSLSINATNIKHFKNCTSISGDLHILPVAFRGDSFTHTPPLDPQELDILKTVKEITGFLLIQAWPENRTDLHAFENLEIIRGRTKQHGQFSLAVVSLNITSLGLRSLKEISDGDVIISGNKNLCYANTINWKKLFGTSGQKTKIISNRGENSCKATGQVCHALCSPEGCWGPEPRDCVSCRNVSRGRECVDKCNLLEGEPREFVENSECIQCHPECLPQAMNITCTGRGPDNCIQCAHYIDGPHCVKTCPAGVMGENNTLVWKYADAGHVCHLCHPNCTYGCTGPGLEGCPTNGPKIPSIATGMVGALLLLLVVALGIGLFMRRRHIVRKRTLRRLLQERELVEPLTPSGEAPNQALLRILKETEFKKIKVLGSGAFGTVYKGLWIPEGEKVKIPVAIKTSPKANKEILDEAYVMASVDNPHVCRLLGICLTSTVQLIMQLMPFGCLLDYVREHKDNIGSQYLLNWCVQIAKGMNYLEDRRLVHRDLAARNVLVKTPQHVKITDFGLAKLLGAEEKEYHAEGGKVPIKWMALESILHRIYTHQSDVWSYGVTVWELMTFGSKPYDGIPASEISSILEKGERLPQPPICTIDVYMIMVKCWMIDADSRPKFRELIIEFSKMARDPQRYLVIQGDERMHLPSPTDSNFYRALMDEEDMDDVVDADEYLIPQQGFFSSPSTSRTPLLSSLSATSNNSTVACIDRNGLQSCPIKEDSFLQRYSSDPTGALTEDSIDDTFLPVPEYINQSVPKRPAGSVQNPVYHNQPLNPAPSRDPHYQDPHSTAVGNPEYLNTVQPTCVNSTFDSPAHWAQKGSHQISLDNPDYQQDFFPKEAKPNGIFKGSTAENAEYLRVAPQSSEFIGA
Experimental: The PathScan® Phospho-EGF Receptor (Tyr1068) Sandwich ELISA Kit is a solid phase sandwich enzyme-linked immunosorbent assay (ELISA) that detects endogenous levels of phospho-EGF Receptor (Tyr1068) protein. […] NCI-H3255 cells were licensed from NCI. […] All cells were cultured according to ATCC recommendations. A549, NCI-H1975, PC9, and NCI-H3255 cells were grown in RPMI media (Invitrogen, Carlsbad, Calif.) supplemented with 10% FBS (Sigma, St Louis, Mo.), and with 1% Penn/Strep (Invitrogen).
Each compound was prepared as a DMSO stock solution (10 mM). Compounds were tested in duplicate on each plate, with an 11-point serial dilution curve (1:3 dilution). Compound treatment (50 μL) was added from the compound dilution plate to the cell plate. […] Plates were then incubated for 2 hr at 37° C., 5% CO2. […] The wash was then flicked off and ice-cold lysis buffer was added to the cells (50 μL/well). The plate was shaken for 20-30 min at 4° C. to completely lyse the cells. Sample diluent (50 μL/well) was added to the ELISA plate, and the lysate (50 μL) was diluted into the sample diluent in each well of the ELISA plate. Plates were sealed and incubated overnight at 4° C. with shaking. The next day, wells were washed four times with 1× Wash Buffer; plates were taped on lint-free paper after the final wash prior to adding Add Detection Antibody (green, 100 μL/well) to each well and incubating for 1 hr at 37° C. After incubation, wells were washed as described. HRP-Linked secondary antibody (red, 100 μL/well) was added to each well and incubated for 30 min at 37° C. After incubation, the wells were washed as described. TMB Substrate (100 μL/well) was added to each well and the plate incubated for 10 min at 37° C. or 30 min at rt maximum. Stop Solution (100 μL/well) was added to each well at the end of the incubation and plates were shaken gently for a few seconds. […] Data were analyzed using a four-parameter fit in Microsoft Excel.

T1 sequence (P00533 25-1210): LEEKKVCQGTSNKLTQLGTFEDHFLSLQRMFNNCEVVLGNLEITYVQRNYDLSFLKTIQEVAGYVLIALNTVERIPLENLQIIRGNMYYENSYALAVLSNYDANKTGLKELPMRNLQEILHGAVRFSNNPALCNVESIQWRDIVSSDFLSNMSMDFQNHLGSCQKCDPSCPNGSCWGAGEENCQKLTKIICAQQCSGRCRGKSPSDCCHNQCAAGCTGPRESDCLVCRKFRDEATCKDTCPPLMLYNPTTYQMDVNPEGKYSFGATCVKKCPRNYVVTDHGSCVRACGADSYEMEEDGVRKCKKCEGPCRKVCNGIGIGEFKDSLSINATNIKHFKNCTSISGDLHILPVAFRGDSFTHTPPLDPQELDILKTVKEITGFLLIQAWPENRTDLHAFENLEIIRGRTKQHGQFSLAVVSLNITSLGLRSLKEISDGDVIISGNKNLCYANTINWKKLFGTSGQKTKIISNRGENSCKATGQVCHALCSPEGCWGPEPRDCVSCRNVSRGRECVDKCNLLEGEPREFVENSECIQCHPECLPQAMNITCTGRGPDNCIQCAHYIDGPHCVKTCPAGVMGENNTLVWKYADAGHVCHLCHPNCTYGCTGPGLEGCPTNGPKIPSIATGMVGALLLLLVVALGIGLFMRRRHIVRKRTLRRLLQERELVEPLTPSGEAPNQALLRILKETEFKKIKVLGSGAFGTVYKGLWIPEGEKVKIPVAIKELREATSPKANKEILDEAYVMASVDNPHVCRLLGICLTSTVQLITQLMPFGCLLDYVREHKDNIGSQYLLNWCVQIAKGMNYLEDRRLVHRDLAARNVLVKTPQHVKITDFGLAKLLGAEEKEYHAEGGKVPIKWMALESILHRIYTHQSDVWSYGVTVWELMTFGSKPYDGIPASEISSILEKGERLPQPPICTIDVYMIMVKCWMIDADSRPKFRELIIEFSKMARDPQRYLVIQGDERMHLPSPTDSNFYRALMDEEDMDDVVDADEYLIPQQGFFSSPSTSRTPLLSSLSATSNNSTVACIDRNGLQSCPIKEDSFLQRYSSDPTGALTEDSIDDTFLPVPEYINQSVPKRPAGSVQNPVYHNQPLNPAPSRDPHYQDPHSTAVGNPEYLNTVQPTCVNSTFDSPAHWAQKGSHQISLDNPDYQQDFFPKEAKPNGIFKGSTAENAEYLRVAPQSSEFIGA
T2 sequence (P00533 25-1210 T790M/L858R): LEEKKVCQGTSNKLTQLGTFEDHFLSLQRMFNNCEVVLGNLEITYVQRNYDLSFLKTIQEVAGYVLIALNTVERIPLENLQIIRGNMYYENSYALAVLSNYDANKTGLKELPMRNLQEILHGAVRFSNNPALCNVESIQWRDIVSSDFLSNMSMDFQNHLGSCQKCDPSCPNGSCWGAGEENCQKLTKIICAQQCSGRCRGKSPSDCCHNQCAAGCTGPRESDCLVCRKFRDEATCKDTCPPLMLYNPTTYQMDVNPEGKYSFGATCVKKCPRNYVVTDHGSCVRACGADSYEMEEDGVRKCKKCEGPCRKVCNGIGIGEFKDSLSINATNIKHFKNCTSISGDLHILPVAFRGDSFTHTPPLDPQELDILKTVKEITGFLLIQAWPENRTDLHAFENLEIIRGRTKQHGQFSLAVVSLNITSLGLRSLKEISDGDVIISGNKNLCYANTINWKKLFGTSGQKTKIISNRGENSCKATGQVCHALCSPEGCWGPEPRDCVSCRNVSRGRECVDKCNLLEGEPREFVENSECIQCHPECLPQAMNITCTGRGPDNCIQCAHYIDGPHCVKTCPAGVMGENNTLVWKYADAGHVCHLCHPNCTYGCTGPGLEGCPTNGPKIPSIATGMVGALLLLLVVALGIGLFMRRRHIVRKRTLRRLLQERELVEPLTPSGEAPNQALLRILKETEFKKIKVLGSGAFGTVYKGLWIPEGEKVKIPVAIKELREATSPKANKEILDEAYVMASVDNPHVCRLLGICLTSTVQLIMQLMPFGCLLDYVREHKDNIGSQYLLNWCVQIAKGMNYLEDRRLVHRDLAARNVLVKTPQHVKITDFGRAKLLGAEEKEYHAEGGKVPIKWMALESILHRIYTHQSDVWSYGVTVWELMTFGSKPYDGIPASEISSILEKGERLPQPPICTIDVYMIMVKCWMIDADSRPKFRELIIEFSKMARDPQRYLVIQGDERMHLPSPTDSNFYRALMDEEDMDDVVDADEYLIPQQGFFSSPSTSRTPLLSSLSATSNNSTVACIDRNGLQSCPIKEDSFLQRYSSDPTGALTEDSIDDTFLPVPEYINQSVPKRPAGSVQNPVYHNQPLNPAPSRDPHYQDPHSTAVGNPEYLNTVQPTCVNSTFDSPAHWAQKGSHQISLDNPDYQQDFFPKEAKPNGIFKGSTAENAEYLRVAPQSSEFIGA

`C=CC(=O)N[C@H]1CCN(c2nc(Nc3cnn(CCN(C)C)c3)c3ncn(C(C)C)c3n2)C1` [Example 43, (S)-N-(1-(6-((1-(2-(dimethylamino)ethyl)-1H-pyrazol-4-yl)amino)-9-isopropyl-9H -purin-2-yl)pyrrolidin-3-yl)acrylamide] showed an IC50 [1] of 1480 nM, an IC50 [2] of 74 nM and an IC50 (EGFR del/T790M (PC9-DRH)) of 18 nM.
Molecule `C=CC(=O)N1C[C@@H]2CN(c3nc(Nc4cnn(C)c4)c4ncn(C(C)C)c4n3)C[C@@H]2C1` [Example 25, 1-((cis)-5-(9-isopropyl-6-((1-methyl-1H-pyrazol-4-yl)amino)-9H-purin-2-yl)hexahydropyrrolo[3,4-c]pyrrol-2(1H)-yl)prop-2-en-1-one] has an IC50 [1] of 805 nM, an IC50 [2] of 49 nM and an IC50 (EGFR del/T790M (PC9-DRH)) of 6 nM.
With `C=CC(=O)N1C[C@@H](F)[C@H](Nc2nc(Nc3ccc(N4CCN(C)CC4)cc3)c3ncn(C(C)C)c3n2)C1` (relative stereo) [Example 19, 1-((trans)-3-fluoro-4-((9-isopropyl-6-((4-(4-methylpiperazin-1-yl)phenyl)amino) -9H-purin-2-yl)amino)pyrrolidin-1-yl)prop-2-en-1-one] the IC50 [1] was 194 nM, the IC50 [2] was 10 nM and the IC50 (EGFR del/T790M (PC9-DRH)) was 25 nM.
`C=CC(=O)Nc1cccc(Oc2nc(Nc3ccc(N4CCN(C)CC4)cc3)c3ncn(C(C)C)c3n2)c1` [Example 22, N-(3-((9-isopropyl-6-((4-(4-methylpiperazin-1-yl)phenyl)amino)-9H-purin-2-yl)oxy)phenyl)acrylamide] gave an IC50 [1] of 39 nM, an IC50 [2] of 6 nM and an IC50 (EGFR del/T790M (PC9-DRH)) of 9 nM.
With `C=CC(=O)N1CCC[C@@H](Oc2nc(Nc3cnn(C)c3)c3ncn(C(C)C)c3n2)C1` [Example 57, (R)-1-(3((9-isopropyl-6-((1-methyl-1H-pyrazol-4-yl)amino)-9H-purin-2-yl)oxy)piperidin-1-yl)prop-2-en-1-one] the IC50 [1] was 3040 nM, the IC50 [2] was 89 nM and the IC50 (EGFR del/T790M (PC9-DRH)) was 44 nM.
`C=CC(=O)N[C@@H]1CN(c2nc(Nc3ccc(N4CCC(N(C)C)CC4)cc3)c3ncn(C(C)C)c3n2)C[C@H]1F` [Example 89, N-((3R,4R)-1-(6-((4-(4-(dimethylamino)piperidin-1-yl)phenyl)amino)-9-isopropyl-9H-purin-2-yl)-4-fluoropyrrolidin-3-yl)acrylamide] showed an IC50 (EGFR del/T790M (PC9-DRH)) of 3 nM.
`C=CC(=O)N[C@@H]1CN(c2nc(Nc3cn(C4CCN(C)C4)nc3C)c3ncn(CC)c3n2)C[C@H]1F` (stereo partly drawn) [Example 80, N-((3R,4R)-1-(9-ethyl-6-((3-methyl-1-(1-methylpyrrolidin-3-yl)-1H-pyrazol-4-yl)amino)-9H-purin-2-yl)-4-fluoropyrrolidin-3-yl)acrylamide] was tested, and the IC50 [1] was 425 nM, the IC50 [2] was 22 nM and the IC50 (EGFR del/T790M (PC9-DRH)) was 10 nM.
In the case of `C=CC(=O)N1C[C@@H]2CN(c3nc(Nc4cnn(C)c4C)c4ncn(C(C)C)c4n3)C[C@@H]2C1` [Example 17, 1-((cis)-5-(6-((1,5-dimethyl-1H-pyrazol-4-yl)amino)-9-isopropyl-9H-purin-2-yl)hexahydropyrrolo[3,4-c]pyrrol-2(1H)-yl)prop-2-en-1-one], the IC50 [1] is reported as at least 10000 nM, the IC50 [2] is reported as 468 nM and the IC50 (EGFR del/T790M (PC9-DRH)) is reported as 2500 nM.
`C=CC(=O)NC1(C)CN(c2nc(Nc3cnn(C)c3)c3ncn(C(C)(C)C)c3n2)C1` [Example 8, N-(1-(9-(tert-butyl)-6-((1-methyl-1H-pyrazol-4-yl)amino)-9H-purin-2-yl)-3-methylazetidin-3-yl)acrylamide] showed an IC50 [1] of 4480 nM, an IC50 [2] of 97 nM and an IC50 (EGFR del/T790M (PC9-DRH)) of 37 nM.
Work on `C=CC(=O)NC1(C)CN(c2nc(Nc3cnn(CCN(C)C)c3)c3ncn(C(C)C)c3n2)C1` [Example 42, N-(1-(6-((1-(2-(dimethylamino)ethyl)-1H-pyrazol-4-yl)amino)-9-isopropyl-9H-purin-2-yl)-3-methylazetidin-3-yl)acrylamide] yielded an IC50 [1] of 1350 nM, an IC50 [2] of 26 nM and an IC50 (EGFR del/T790M (PC9-DRH)) of 38 nM.
`C=CC(=O)N[C@@H]1CN(c2nc(Nc3ccc(N4CCN(C)CC4)cc3)c3ncn(C(C)(C)C)c3n2)C[C@H]1F` [Example 52, N-((3R,4R)-1-(9-(tert-butyl)-6-((4-(4-methylpiperazin-1-yl)phenyl)amino)-9H-purin-2-yl)-4-fluoropyrrolidin-3-yl)acrylamide] showed an IC50 [1] of at least 10000 nM, an IC50 [2] of 742 nM and an IC50 (EGFR del/T790M (PC9-DRH)) of 6 nM.
For `C=CC(=O)N[C@H]1CCN(c2nc(Nc3ccc(N4CCN(CC)CC4)cc3)c3ncn(C(C)C)c3n2)C1` [Example 40, (S)-N-(1-(6-((4-(4-ethylpiperazin-1-yl)phenyl)amino)-9-isopropyl-9H-purin-2-yl)pyrrolidin-3-yl)acrylamide], the IC50 [1] was 74 nM, the IC50 [2] was 8 nM and the IC50 (EGFR del/T790M (PC9-DRH)) was 5 nM.
Molecule `C=CC(=O)N1C[C@@H]2CN(c3nc(Nc4ccc(N5CCN(C)CC5)cc4)c4ncn(C(C)(C)C)c4n3)C[C@@H]2C1` [Example 18, 1-((cis)-5-(9-(tert-butyl)-6-((4-(4-methylpiperazin-1-yl)phenyl)amino)-9H-purin-2-yl)hexahydropyrrolo[3,4-c]pyrrol-2(1H)-yl)prop-2-en-1-one] has an IC50 [1] of 4570 nM, an IC50 [2] of 32 nM and an IC50 (EGFR del/T790M (PC9-DRH)) of 27 nM.
For `C=CC(=O)N1C[C@H]2CN(c3nc(Nc4ccc(N5CCN(C)CC5)cc4)c4ncn(C(C)C)c4n3)C[C@]2(OC)C1` (single isomer, unassigned) [Example 64], the IC50 [1] was 127 nM, the IC50 [2] was 8 nM and the IC50 (EGFR del/T790M (PC9-DRH)) was 8 nM.
`C=CC(=O)N1C[C@@H]2CN(c3nc(Nc4ccc(N5CCN(C)CC5)cc4)c4ncn(C)c4n3)C[C@@H]2C1` [Example 33, 1-((cis)-5-(9-methyl-6-((4-(4-methylpiperazin-1-yl)phenyl)amino)-9H-purin-2-yl)hexahydropyrrolo[3,4-c]pyrrol-2(1H)-yl)prop-2-en-1-one] gave an IC50 [1] of 324 nM, an IC50 [2] of 18 nM and an IC50 (EGFR del/T790M (PC9-DRH)) of 4 nM.
Work on `C=CC(=O)N[C@H]1CCN(c2nc(Nc3ccc(N4CCN(C)CC4)cc3)c3ncn(C(C)(C)C)c3n2)C1` [Example 9, (S)-N-(1-(9-(tert-butyl)-6-((4-(4-methylpiperazin-1-yl)phenyl)amino)-9H-purin-2-yl)pyrrolidin-3-yl)acrylamide] yielded an IC50 [1] of 2740 nM, an IC50 [2] of 32 nM and an IC50 (EGFR del/T790M (PC9-DRH)) of 26 nM.
In the case of `C=CC(=O)N1C[C@@H](F)[C@H](Nc2nc(Nc3ccc(N4CCN(C)CC4)cc3)c3ncn(C)c3n2)C1` (relative stereo) [Example 20, 1-((trans)-3-fluoro-4-((9-methyl-6-((4-(4-methylpiperazin-1-yl)phenyl)amino)-9H -purin-2-yl)amino)pyrrolidin-1-yl)prop-2-en-1-one], the IC50 [1] is reported as 119 nM, the IC50 [2] is reported as 11 nM and the IC50 (EGFR del/T790M (PC9-DRH)) is reported as 2 nM.
With `C=CC(=O)N[C@@H]1CN(c2nc(Nc3ccc(N4CCC(N(C)C)CC4)cc3OC)c3ncn(C(C)C)c3n2)C[C@H]1F` [Example 90, N-((3R,4R)-1-(6-((4-(4-(dimethylamino)piperidin-1-yl)-2-methoxyphenyl)amino)-9-isopropyl-9H-purin-2-yl)-4-fluoropyrrolidin-3-yl)acrylamide] the IC50 (EGFR del/T790M (PC9-DRH)) was 9 nM.
`C=CC(=O)NC1(C)CN(c2nc(Nc3cnn(C)c3)c3ncn(CC)c3n2)C1` [Example 56, N-(1-(9-ethyl-6-((1-methyl-1H-pyrazol-4-yl)amino)-9H-purin-2-yl)-3-methylazetidin-3-yl)acrylamide] gave an IC50 [1] of 504 nM, an IC50 [2] of 108 nM and an IC50 (EGFR del/T790M (PC9-DRH)) of 2 nM.
For `C=CC(=O)N[C@H]1CCN(c2nc(Nc3ccc(N4CCN(C(C)C)CC4)cc3)c3ncn(C(C)C)c3n2)C1` [Example 36, (S)-N-(1-(9-isopropyl-6-((4-(4-isopropylpiperazin-1-yl)phenyl)amino)-9H-purin-2-yl)pyrrolidin-3-yl)acrylamide], the IC50 [1] was 242 nM, the IC50 [2] was 8 nM and the IC50 (EGFR del/T790M (PC9-DRH)) was 9 nM.
In the case of `C=CC(=O)N[C@@H]1CN(c2nc(Nc3cnn(C)c3)c3ncn(C(C)C)c3n2)CC1(F)F` [Example 74, (R)—N-(4,4-difluoro-1-(9-isopropyl-6-((1-methyl-1H-pyrazol-4-yl)amino)-9H-purin-2-yl)pyrrolidin-3-yl)acrylamide], the IC50 [1] is reported as 49 nM, the IC50 [2] is reported as 5 nM and the IC50 (EGFR del/T790M (PC9-DRH)) is reported as 2 nM.
`C=CC(=O)NC1(C)CN(c2nc(Nc3ccc(N4CCN(C)CC4)cc3)c3ncn(C(C)C)c3n2)C1` [Example 12, N-(1-(9-isopropyl-6-((4-(4-methylpiperazin-1-yl)phenyl)amino)-9H-purin-2-yl)-3-methylazetidin-3-yl)acrylamide] showed an IC50 [1] of 140 nM, an IC50 [2] of 6 nM and an IC50 (EGFR del/T790M (PC9-DRH)) of 10 nM.
For `C=CC(=O)NC1(C)CN(c2nc(Nc3cnn(C4CCN(C)C4)c3)c3ncn(C(C)C)c3n2)C1` (stereo not shown) [Example 44, N-(1-(9-isopropyl-6-((1-(1-methylpyrrolidin-3-yl)-1H-pyrazol-4-yl)amino)-9H-purin-2-yl)-3-methylazetidin-3-yl)acrylamide], the IC50 [1] was 1150 nM, the IC50 [2] was 24 nM and the IC50 (EGFR del/T790M (PC9-DRH)) was 7 nM.
`C=CC(=O)N[C@@H]1CN(c2nc(Nc3cn(C)nc3C)c3ncn(CC)c3n2)C[C@H]1F` [Example 76, N-((3R,4R)-1-(6-((1,3-dimethyl-1H-pyrazol-4-yl)amino)-9-ethyl-9H-purin-2-yl)-4-fluoropyrrolidin-3-yl)acrylamide] gave an IC50 [1] of 394 nM, an IC50 [2] of 30 nM and an IC50 (EGFR del/T790M (PC9-DRH)) of 2 nM.
With `C=CC(=O)N[C@H]1CCN(c2nc(Nc3cnn([C@H]4CCN(C)C4)c3)c3ncn(C(C)C)c3n2)C1` [Example 69, N—((S)-1-(9-isopropyl-6-((1-((S)-1-methylpyrrolidin-3-yl)-1H-pyrazol-4-yl)amino) -9H-purin-2-yl)pyrrolidin-3-yl)acrylamide] the IC50 [1] was 712 nM and the IC50 [2] was 37 nM.

— US9290496B2, “Purine derivatives” (PFIZER INC., priority 2013, dated 2016)
